Structures can show the parent of a compound that is named as a salt.

We go through eleven compounds from patent publication US20260028365A1 (BIOGEN MA INC., priority 2022, published 2026).

The target in experiment [1] is JH2 domain of human Tyk2 (Homo sapiens (Human), UniProt P29597). Put plainly: JH2 Biochemical Assay (TR-FRET probe displacement). The class given is binding. On the technique in general: In TR-FRET formats the signal depends on donor and acceptor labels being close together.
Experiment [2] concerns the target Tyk2 (Homo sapiens (Human), UniProt P29597). Put plainly: pSTAT4 Cell Assay (MSD, NK92 cells). The class given is cell-based. As to conditions: MSD.
[3] abbreviates: JH2 domain of human Tyk2, TR-FRET probe displacement.
Setting [4] is: TR-FRET probe displacement, JH2 domain of human Tyk2.

Chain of Tyk2 (P29597 whole entry, the tested form may be a part): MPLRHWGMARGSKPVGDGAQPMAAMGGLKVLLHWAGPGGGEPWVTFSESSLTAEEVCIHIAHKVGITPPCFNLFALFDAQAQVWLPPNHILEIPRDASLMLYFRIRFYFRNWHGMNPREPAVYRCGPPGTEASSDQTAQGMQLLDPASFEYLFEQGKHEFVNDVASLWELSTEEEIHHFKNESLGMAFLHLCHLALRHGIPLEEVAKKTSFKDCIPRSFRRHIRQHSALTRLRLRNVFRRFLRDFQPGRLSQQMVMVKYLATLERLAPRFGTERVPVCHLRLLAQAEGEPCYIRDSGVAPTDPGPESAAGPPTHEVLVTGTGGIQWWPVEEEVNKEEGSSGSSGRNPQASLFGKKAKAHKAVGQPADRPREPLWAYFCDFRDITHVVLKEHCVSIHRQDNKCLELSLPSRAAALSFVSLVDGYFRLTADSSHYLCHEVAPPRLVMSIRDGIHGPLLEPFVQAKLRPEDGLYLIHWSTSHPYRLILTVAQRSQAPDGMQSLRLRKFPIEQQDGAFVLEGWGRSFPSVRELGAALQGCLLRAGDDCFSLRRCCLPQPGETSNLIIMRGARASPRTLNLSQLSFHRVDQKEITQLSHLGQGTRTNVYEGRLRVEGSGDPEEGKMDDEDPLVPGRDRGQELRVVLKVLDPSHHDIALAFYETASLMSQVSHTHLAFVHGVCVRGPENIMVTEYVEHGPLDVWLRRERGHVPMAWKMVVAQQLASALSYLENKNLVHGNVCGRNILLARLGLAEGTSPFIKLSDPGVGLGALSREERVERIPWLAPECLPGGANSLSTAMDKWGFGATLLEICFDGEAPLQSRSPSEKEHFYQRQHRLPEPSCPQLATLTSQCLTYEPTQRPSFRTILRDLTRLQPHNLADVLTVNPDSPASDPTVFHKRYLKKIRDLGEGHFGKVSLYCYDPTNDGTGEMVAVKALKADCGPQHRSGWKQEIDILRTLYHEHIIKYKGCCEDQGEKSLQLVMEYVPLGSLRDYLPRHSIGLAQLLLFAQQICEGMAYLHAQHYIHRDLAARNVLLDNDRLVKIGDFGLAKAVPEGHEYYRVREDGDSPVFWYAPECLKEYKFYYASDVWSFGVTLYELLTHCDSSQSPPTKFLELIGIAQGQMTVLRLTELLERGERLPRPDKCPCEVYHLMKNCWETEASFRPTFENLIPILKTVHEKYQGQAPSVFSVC
Chain of JH2 domain of human Tyk2 (P29597 575-876): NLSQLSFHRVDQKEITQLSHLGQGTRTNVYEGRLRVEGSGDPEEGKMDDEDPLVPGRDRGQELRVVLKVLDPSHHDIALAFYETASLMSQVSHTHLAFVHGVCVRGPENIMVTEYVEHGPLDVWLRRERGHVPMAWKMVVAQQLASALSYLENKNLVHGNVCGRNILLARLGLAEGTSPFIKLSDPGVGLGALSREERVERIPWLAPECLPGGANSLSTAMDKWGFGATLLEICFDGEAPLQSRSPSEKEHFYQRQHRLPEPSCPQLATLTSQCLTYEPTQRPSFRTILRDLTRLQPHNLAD

In the case of `CC(=O)Nc1cc(Nc2cc(C)nc(C(C)(F)F)n2)c(-c2cnn(C(C)C)n2)cn1` [Example 610, N-(4-((2-(1,1-difluoroethyl)-6-methylpyrimidin-4-yl)amino)-5-(2-isopropyl-2H-1,2,3-triazol-4-yl)pyridin-2-yl)acetamide], the IC50 in experiment [1] (setting [3]) and in experiment [2] was at most 0.01 µM in each case.
On to `COCc1cnc(-c2cnc(NC(C)=O)cc2Nc2cc(C)nc(C(C)(F)F)n2)s1` [Example 231, N-(4-((2-(1,1-difluoroethyl)-6-methylpyrimidin-4-yl)amino)-5-(5-(methoxymethyl)thiazol-2-yl)pyridin-2-yl)acetamide], for which the IC50 in experiment [1] (setting [4]) and in experiment [2] was at most 0.01 µM each time.
For `COCCn1cc(-c2cc(Nc3cc(NC(C)=O)ncc3OC)nc(C(C)(F)F)n2)cn1` [Example 386, N-(4-((2-(1,1-difluoroethyl)-6-(1-(2-methoxyethyl)-1H-pyrazol-4-yl)pyrimidin-4-yl)amino)-5-methoxypyridin-2-yl)acetamide], the IC50 (in general, the concentration needed to halve the response being measured) in experiment [1] (setting [3]) was at most 0.01 µM; in experiment [2] it was 0.01 to 0.1 µM.
As to `CC(=O)Nc1cc(Nc2cc(C)cc(C(C)(F)F)n2)c(-c2ncc(F)cn2)cn1` [Example 190, N-(4-((6-(1,1-difluoroethyl)-4-methylpyridin-2-yl)amino)-5-(5-fluoropyrimidin-2-yl)pyridin-2-yl)acetamide], the results for the IC50 in experiment [1] (setting [4]) and in experiment [2] were at most 0.01 µM and 0.01 to 0.1 µM, respectively.
On to `CC(=O)Nc1cc(Nc2cc(C)nc(C(C)(F)F)n2)c(-c2ccn(CC(C)(C)O)n2)cn1` [Example 228, N-(4-((2-(1,1-difluoroethyl)-6-methylpyrimidin-4-yl)amino)-5-(1-(2-hydroxy-2-methylpropyl)-1H-pyrazol-3-yl)pyridin-2-yl)acetamide], for which the IC50 in experiment [1] (setting [4]) and in experiment [2] was at most 0.01 µM in each case.
`CC(=O)Nc1cc(Nc2ccnc(C(C)(F)F)n2)c(-c2cncc(CC#N)n2)cn1` [Example 688, N-(5-(6-(cyanomethyl)pyrazin-2-yl)-4-((2-(1,1-difluoroethyl)pyrimidin-4-yl)amino)pyridin-2-yl)acetamide]: the half-inhibitory concentration (IC50) in experiment [1] (setting [3]) is at most 0.01 µM; in experiment [2], 0.1 to 1 µM.
In the case of `CCc1cc(Nc2cc(NC(C)=O)ncc2-c2ccc(OCCOC)nn2)nc(C(C)(F)F)n1` [Example 269, N-(4-((2-(1,1-difluoroethyl)-6-ethylpyrimidin-4-yl)amino)-5-(6-(2-methoxyethoxy)pyridazin-3-yl)pyridin-2-yl)acetamide trifluoroacetate], the IC50 in experiment [1] (setting [4]) and in experiment [2] was at most 0.01 µM in each case.
`CC(=O)Nc1cc(Nc2cc(C)nc(C(C)(F)F)n2)c(OC[C@H]2CCC(=O)N2)cn1` [Example 502, (R)-N-(4-((2-(1,1-difluoroethyl)-6-methylpyrimidin-4-yl)amino)-5-((5-oxopyrrolidin-2-yl)methoxy)pyridin-2-yl)acetamide]: the IC50 is at most 0.01 µM in experiment [1] (setting [3]) and 0.1 to 1 µM in experiment [2].
In the case of `CC(=O)Nc1cc(Nc2cc(C)nc(C(C)(F)F)n2)c(OCCC(C)F)cn1` (stereo not shown) [Example 444, N-(4-((2-(1,1-difluoroethyl)-6-methylpyrimidin-4-yl)amino)-5-(3-fluorobutoxy)pyridin-2-yl)acetamide], the IC50 in experiment [1] (setting [3]) is at most 0.01 µM; in experiment [2] it was 0.01 to 0.1 µM.
For the compound `CC(=O)Nc1cc(Nc2cccc(C(C)(C)F)n2)c(-c2ncc(F)cn2)cn1` [Example 215, N-(4-((6-(2-fluoropropan-2-yl)pyridin-2-yl)amino)-5-(5-fluoropyrimidin-2-yl)pyridin-2-yl)acetamide], the IC50 in experiment [1] (setting [4]) is at most 0.01 µM; in experiment [2] it was 0.01 to 0.1 µM.
The like results for `CC(=O)Nc1cc(Nc2cc(C)nc(C(C)(F)F)n2)c(OC[C@@H](C)OC(C)(C)C)cn1` [Example 321, (R)-N-(5-(2-(tert-butoxy)propoxy)-4-((2-(1,1-difluoroethyl)-6-methylpyrimidin-4-yl)amino)pyridin-2-yl)acetamide] were, in that order, at most 0.01 µM and 0.01 to 0.1 µM.
